Measured values taken from patent US20250032460A1, “METHODS OF TREATING NEUROLOGICAL DISORDERS” (MapLight Therapeutics, Inc., priority 2021, published 2025).

How the values were obtained:
[1] = test system: Compound 1 induced salivation; assay: Fesoterodine dose-response antagonistic effect on Compound 1 induced salivation in anaesthetized rats; assay type: in vivo, Sprague Dawley rats
Description: An in vivo primary pharmacology study evaluating the fesoterodine fumarate dose-response antagonistic effect on Compound 1 induced salivation in anaesthetized male Sprague Dawley rats was conducted. […] Intravenous fesoterodine doses were administered at […]. Fesoterodine was dosed 10 minutes prior to dosage of Compound 1. All animals were normal with no observed abnormality detected in clinical signs or behavior. Salivation was measured by using oral dry swab in anesthetized rats with the calculated difference between the dry swab weight and the wet swab weight indicating the weight of saliva produced. Samples were collected post-dosing for one hour at 10-minute intervals.

[2] = test system: salivation; assay: Single ascending dose study: salivation (pharmacodynamics); assay type: in vivo, healthy adult volunteers; conditions: Group 2: 8 mg fesoterodine fumarate 4 hours prior to 40 mg Compound 1, vs placebo pre-treatment (FIG. 2)
Description: MTD was established at the dose which produced mild to moderate cholinergic adverse effects. Cholinergic effects were monitored for each dose, including pupillometry and salivation.
Group 2 evaluated tolerability of Compound 1 at Group 1 MTD with or without fesoterodine fumarate co-administration. Subjects received 8 mg of fesoterodine fumarate tablet or matched placebo tablet 4 hours prior to administration of 40 mg of Compound 1.

[3] = Clinical observations during 7-day oral dosing in beagle dogs; conditions: for Clinical Observation: Group 2: fesoterodine fumarate 3 mg/kg/day PO, individual dog
[4] = Fesoterodine 0.0078 mg/mL IV 10 min prior to Compound 1 (1.5 mg/kg) IV
[5] = Fesoterodine 0.0156 mg/mL IV 10 min prior to Compound 1 (1.5 mg/kg) IV
[6] = Fesoterodine 0.0312 mg/mL IV 10 min prior to Compound 1 (1.5 mg/kg) IV
[7] = Fesoterodine 0.0625 mg/mL IV 10 min prior to Compound 1 (1.5 mg/kg) IV
[8] = Fesoterodine 0.125 mg/mL IV 10 min prior to Compound 1 (1.5 mg/kg) IV
[9] = Fesoterodine 0.25 mg/mL IV 10 min prior to Compound 1 (1.5 mg/kg) IV
[10] = Fesoterodine 0.5 mg/mL IV 10 min prior to Compound 1 (1.5 mg/kg) IV

## CC(C)C(=O)Oc1ccc(CO)cc1[C@H](CCN(C(C)C)C(C)C)c1ccccc1 [Fesoterodine, fesoterodine]
[1]; [4]
  Salivation (mg) (mean value), 10 min: 347.49 mg
  Salivation (mg) (mean value), 20 min: 90.03 mg
  Salivation (mg) (mean value), 30 min: 26.31 mg
  Salivation (mg) (mean value), 40 min: 10.29 mg
  Salivation (mg) (mean value), 50 min: 9.96 mg
  Salivation (mg) (mean value), 60 min: 7.74 mg
  Salivation (mg) (mean value), Total: 491.83 mg
[1]; [5]
  Salivation (mg) (mean value), 10 min: 163.43 mg
  Salivation (mg) (mean value), 20 min: 69.8 mg
  Salivation (mg) (mean value), 30 min: 30.58 mg
  Salivation (mg) (mean value), 40 min: 16.26 mg
  Salivation (mg) (mean value), 50 min: 11.66 mg
  Salivation (mg) (mean value), 60 min: 5.71 mg
  Salivation (mg) (mean value), Total: 297.45 mg
[1]; [6]
  Salivation (mg) (mean value), 10 min: 95.37 mg
  Salivation (mg) (mean value), 20 min: 61.86 mg
  Salivation (mg) (mean value), 30 min: 29.68 mg
  Salivation (mg) (mean value), 40 min: 8.31 mg
  Salivation (mg) (mean value), 50 min: 8.78 mg
  Salivation (mg) (mean value), 60 min: 6.64 mg
  Salivation (mg) (mean value), Total: 210.64 mg
[1]; [7]
  Salivation (mg) (mean value), 10 min: 66.8 mg
  Salivation (mg) (mean value), 20 min: 27.58 mg
  Salivation (mg) (mean value), 30 min: 12.89 mg
  Salivation (mg) (mean value), 40 min: 9.18 mg
  Salivation (mg) (mean value), 50 min: 6.56 mg
  Salivation (mg) (mean value), 60 min: 2.45 mg
  Salivation (mg) (mean value), Total: 125.47 mg
[1]; [8]
  Salivation (mg) (mean value), 10 min: 45.22 mg
  Salivation (mg) (mean value), 20 min: 21.91 mg
  Salivation (mg) (mean value), 30 min: 7.85 mg
  Salivation (mg) (mean value), 40 min: 5.06 mg
  Salivation (mg) (mean value), 50 min: 4.73 mg
  Salivation (mg) (mean value), 60 min: 3.5 mg
  Salivation (mg) (mean value), Total: 88.27 mg
[1]; [9]
  Salivation (mg) (mean value), 10 min: 7 mg
  Salivation (mg) (mean value), 20 min: 3.13 mg
  Salivation (mg) (mean value), 30 min: 3.17 mg
  Salivation (mg) (mean value), 40 min: 2.15 mg
  Salivation (mg) (mean value), 50 min: 2.49 mg
  Salivation (mg) (mean value), 60 min: 1.37 mg
  Salivation (mg) (mean value), Total: 19.31 mg
[1]; [10]
  Salivation (mg) (mean value), 10 min: 7.23 mg
  Salivation (mg) (mean value), 20 min: 2.83 mg
  Salivation (mg) (mean value), 30 min: 1.21 mg
  Salivation (mg) (mean value), 40 min: 4.11 mg
  Salivation (mg) (mean value), 50 min: 2.5 mg
  Salivation (mg) (mean value), 60 min: 1.8 mg
  Salivation (mg) (mean value), Total: 19.69 mg
[1]; Fesoterodine 0.0078-0.5 mg/mL IV prior to Compound 1
  Fesoterodine effect with Compound 1 on salivation: significant decrease of salivation in a consistent dose-responsive manner
[2]; listed as fesoterodine
  effect of fesoterodine pre-treatment on the increase in salivation post Compound 1 dosing: nearly abolished both subjective reports of hypersalivation and the objective increase in saliva volume
[2]; listed as fesoterodine fumarate
  effect of fesoterodine pre-treatment on the increase in salivation post Compound 1 dosing: not observed
[3]; Group 1 Compound 1 1.5 mg/kg/day PO alone, Group 3 with fesoterodine fumarate 3 mg/kg/day PO, 7 days
  peripheral side effects observed after dosing: substantially reduced the peripheral effects
[3]; 7 day period
  Clinical Observation: none
[3]; day 1
  Clinical Observation: For D2001, miosis was found 1 hr 10 min after dosing on day 1. 2 hr
